Laboratory results as given in ChEMBL document CHEMBL5543068, “Mitochondrial targeting derivatives of honokiol enhanced selective antitumor activity in NCI-H446 cells and decreased in vivo toxicity in Caenorhabditis elegans” (Eur J Med Chem, 2024).
Values belong to the compound of their own block, whether it stands above or below them. Calls of active or inactive are those of the source. The calls are words filed in the database; no cut-off is given here.

Tests used:
NCI-H446 [1] = test: Induction of apoptosis in human NCI-H446 cells assessed as late apoptotic cells at 0.25 uM incubated for 24 hrs by Annexin V-FITC/PI staining based flow cytometric analysis (reference value: 1.71 %); assay type: functional
NCI-H446 [2] = test: Induction of apoptosis in human NCI-H446 cells assessed as early apoptotic cells at 2 uM incubated for 24 hrs by Annexin V-FITC/PI staining based flow cytometric analysis (reference value: 0.37 %); assay type: functional
NCI-H446 [3] = test: Induction of apoptosis in human NCI-H446 cells assessed as late apoptotic cells at 1 uM incubated for 24 hrs by Annexin V-FITC/PI staining based flow cytometric analysis (reference value: 1.71 %); assay type: functional
[4] = Toxicity in Caenorhabditis elegans assessed as reduction in movement speed at 100 uM measured after 72 hrs by […] microscopic analysis
NCI-H446 [5] = test: Induction of apoptosis in human NCI-H446 cells assessed as early apoptotic cells at 0.5 uM incubated for 24 hrs by Annexin V-FITC/PI staining based flow cytometric analysis (reference value: 0.37 %); assay type: functional
NCI-H446 [6] = test: Induction of apoptosis in human NCI-H446 cells assessed as late apoptotic cells at 2 uM incubated for 24 hrs by Annexin V-FITC/PI staining based flow cytometric analysis (reference value: 1.71 %); assay type: functional
NCI-H446 [7] = test: Induction of apoptosis in human NCI-H446 cells assessed as necrotic cells at 0.5 uM incubated for 24 hrs by Annexin V-FITC/PI staining based flow cytometric analysis (reference value: 1.17 %); assay type: functional
NCI-H446 [8] = test: Induction of apoptosis in human NCI-H446 cells assessed as early apoptotic cells at 0.25 uM incubated for 24 hrs by Annexin V-FITC/PI staining based flow cytometric analysis (reference value: 0.37 %); assay type: functional
NCI-H446 [9] = test: Induction of apoptosis in human NCI-H446 cells assessed as necrotic cells at 2 uM incubated for 24 hrs by Annexin V-FITC/PI staining based flow cytometric analysis (reference value: 1.17 %); assay type: functional
[10] = Cytotoxicity against human HL7702 cells assessed as reduction in cell viability incubated for 48 hrs by MTT assay; assay type: toxicity, cell-based; settings: HL7702 (L02) cells
NCI-H446 [11] = test: Induction of apoptosis in human NCI-H446 cells assessed as viable cells at 0.25 uM incubated for 24 hrs by Annexin V-FITC/PI staining based flow cytometric analysis (reference value: 96.8 %); assay type: functional; settings: read-out: Activity
NCI-H446 [12] = test: Induction of apoptosis in human NCI-H446 cells assessed as early apoptotic cells at 1 uM incubated for 24 hrs by Annexin V-FITC/PI staining based flow cytometric analysis (reference value: 0.37 %); assay type: functional
NCI-H446 [13] = test: Antiproliferative activity against human NCI-H446 cells assessed as reduction in cell viability incubated for 48 hrs by MTT assay; assay type: functional, cell-based; settings: for IC50: NCI-H446, 48 h
NCI-H446 [14] = test: Induction of apoptosis in human NCI-H446 cells assessed as viable cells at 2 uM incubated for 24 hrs by Annexin V-FITC/PI staining based flow cytometric analysis (reference value: 96.8 %); assay type: functional; settings: read-out: Activity
NCI-H446 [15] = test: Induction of apoptosis in human NCI-H446 cells assessed as viable cells at 1 uM incubated for 24 hrs by Annexin V-FITC/PI staining based flow cytometric analysis (reference value: 96.8 %); assay type: functional; settings: read-out: Activity
[16] = Toxicity in Caenorhabditis elegans assessed as reduction in growth by measuring body length at 20 to 100 uM measured after 72 hrs by […] microscopic analysis; settings: dose 20-100 µM
NCI-H446 [17] = test: Induction of apoptosis in human NCI-H446 cells assessed as necrotic cells at 1 uM incubated for 24 hrs by Annexin V-FITC/PI staining based flow cytometric analysis (reference value: 1.17 %); assay type: functional
NCI-H446 [18] = test: Induction of apoptosis in human NCI-H446 cells assessed as viable cells at 0.5 uM incubated for 24 hrs by Annexin V-FITC/PI staining based flow cytometric analysis (reference value: 96.8 %); assay type: functional; settings: read-out: Activity
NCI-H446 [19] = test: Induction of apoptosis in human NCI-H446 cells assessed as necrotic cells at 0.25 uM incubated for 24 hrs by Annexin V-FITC/PI staining based flow cytometric analysis (reference value: 1.17 %); assay type: functional
Cell membrane [20] = test: Induction of mitochondrial membrane potential loss in human NCI-H446 cells at 0.25 uM incubated for 24 hrs by JC-1 staining based flow cytometric analysis; assay type: cell membranes
HepG2 = test: Antiproliferative activity against human HepG2 cells assessed as reduction in cell viability incubated for 48 hrs by MTT assay; assay type: functional, cell-based; settings: HepG2, 48 h
NCI-H446 [21] = test: Induction of ROS production in human NCI-H446 cells assessed as increase in intracellular ROS level at 2 uM incubated for 24 hrs by DCFH-DA staining based flow cytometric analysis; assay type: functional, cell-based
A549 = test: Antiproliferative activity against human A549 cells assessed as reduction in cell viability incubated for 48 hrs by MTT assay; assay type: functional, cell-based; settings: A549, 48 h
NCI-H446 [22] = test: Induction of apoptosis in human NCI-H446 cells assessed as late apoptotic cells at 0.5 uM incubated for 24 hrs by Annexin V-FITC/PI staining based flow cytometric analysis (reference value: 1.71 %); assay type: functional
[23] = Cytotoxicity against HBE (human bronchial epithelial) cells assessed as reduction in cell viability incubated for 48 hrs by MTT assay; assay type: toxicity, cell-based
[24] = Selectivity index, ratio of IC50 for cytotoxicity against HBE (human bronchial epithelial) cells to IC50 for antiproliferative activity against human NCI-H446 cells; assay type: toxicity, cell-based; settings: HBE (human bronchial epithelial) cells versus NCI-H446 cells, read-out: Ratio IC50
NCI-H446 [25] = test: Induction of ROS production in human NCI-H446 cells assessed as increase in intracellular ROS level incubated for 24 hrs by DCFH-DA staining based flow cytometric analysis; assay type: functional, cell-based; settings: dose 0.25-2 µM
[26] = Drug localization in human NCI-H446 cell mitochondria at 2.5 uM incubated for 5 hrs by MitoTracker Red CMXRos dye based confocal microscopic analysis; assay type: ADME; settings: nci-h446, 5 h
NCI-H446 [27] = test: Induction of apoptosis in human NCI-H446 cells assessed as decrease in caspase-3 level at 0.5 to 2 uM by Western blot analysis; assay type: functional, cell-based; settings: dose 0.5-2 µM
[28] = Induction of apoptosis in HBE (human bronchial epithelial) cells assessed as change in nuclei morphology at 1 to 2 uM incubated for 24 hrs by DAPI staining based fluorescence inverted microscopic analysis; assay type: toxicity, cell-based; settings: dose 1-2 µM
NCI-H446 [29] = test: Induction of apoptosis in human NCI-H446 cells assessed as change in cellular nuclei morphology at 1 uM incubated for 24 hrs by DAPI staining based fluorescence inverted microscopic analysis; assay type: functional, cell-based
CDDP-resistant A549 cell [30] = test: Antiproliferative activity against human CDDP-resistant A549 cells assessed as reduction in cell viability at 0.5 to 16 uM incubated for 48 hrs by MTT assay; assay type: functional, cell-based; settings: dose 0.5-16 µM
Cell membrane [31] = test: Induction of mitochondrial membrane potential loss in human NCI-H446 cells incubated for 24 hrs by JC-1 staining based flow cytometric analysis; assay type: cell membranes; settings: dose 0.25-2 µM
[32] = Toxicity in Caenorhabditis elegans assessed as reduction in movement speed at 20 to 100 uM measured after 72 hrs by […] microscopic analysis; settings: dose 20-100 µM
NCI-H446 [33] = test: Induction of apoptosis in human NCI-H446 cells assessed as increase in cleaved caspase-3 level at 0.5 to 2 uM by Western blot analysis; assay type: functional, cell-based; settings: dose 0.5-2 µM
NCI-H446 [34] = test: Cell cycle arrest in human NCI-H446 cells assessed as decrease in S phase cells at 0.25 to 2 uM incubated for 24 hrs by PI staining based flow cytometric analysis; assay type: functional; settings: dose 0.25-2 µM
CDDP-resistant A549 cell [35] = test: Sensitization of cisplatin-induced antiproliferative activity against human CDDP-resistant A549 cells assessed as inhibition of cell growth at 0.25 uM incubated for 48 hrs by MTT assay; assay type: functional, cell-based
NCI-H446 [36] = test: Induction of apoptosis in human NCI-H446 cells assessed as decrease in caspase-9 level at 0.5 to 2 uM by Western blot analysis; assay type: functional, cell-based; settings: dose 0.5-2 µM
[37] = Drug uptake in human NCI-H446 cells assessed as green fluorescence at 2.5 uM incubated for 5 hrs by confocal microscopic analysis; assay type: ADME, cell-based; settings: nci-h446, 5 h
NCI-H446 [38] = test: Induction of apoptosis in human NCI-H446 cells assessed as decrease in PARP level at 0.5 to 2 uM by Western blot analysis; assay type: functional, cell-based; settings: dose 0.5-2 µM
NCI-H446 [39] = test: Antiproliferative activity against human NCI-H446 cells assessed as reduction in cell viability at 0.5 to 8 uM by MTT assay; assay type: functional, cell-based; settings: dose 0.5-8 µM, time 24-72 hrs, TDE = time-dependent effect
NCI-H446 [40] = test: Cell cycle arrest in human NCI-H446 cells assessed as increase in subG1 phase cells at 0.25 to 2 uM incubated for 24 hrs by PI staining based flow cytometric analysis; assay type: functional; settings: dose 0.25-2 µM
NCI-H446 [41] = test: Antiproliferative activity against human NCI-H446 cells assessed as reduction in cell viability incubated for 24 to 72 hrs by MTT assay; assay type: functional, cell-based; settings: dose 0.5-8 µM, time 24-72 hrs
NCI-H446 [42] = test: Cell cycle arrest in human NCI-H446 cells assessed as G0/G1 phase cells incubated for 24 hrs by PI staining based flow cytometric analysis (reference value: 52.37%); assay type: functional
NCI-H446 [43] = test: Synergistic antiproliferative activity against human NCI-H446 cells assessed as reduction in cell viability incubated for 48 hrs in presence of cisplatin by MTT assay; assay type: functional, cell-based; settings: dose 0.5-8 µM
[44] = Toxicity in Caenorhabditis elegans assessed as reduction in growth by measuring body length at 50 to 100 uM measured after 72 hrs by […] microscopic analysis; settings: dose 50-100 µM
NCI-H446 [45] = test: Induction of apoptosis in human NCI-H446 cells assessed as increase in cleaved caspase-9 level at 0.5 to 2 uM by Western blot analysis; assay type: functional, cell-based; settings: dose 0.5-2 µM

- IC50 (NCI-H446 [13]): 44.5 µM
- Activity (Cell membrane [20]): inactive
- IC50 (HepG2): 41.4 µM
- IC50 (A549): 48.1 µM
SMILES: C=CCc1ccc(O)c(-c2ccc(O)c(CC=C)c2)c1 [HONOKIOL]
- Activity (NCI-H446 [1]): 2.04%
- Activity (NCI-H446 [2]): 2.61%
- Activity (NCI-H446 [3]): 12.8%
- Activity [4]: Toxic
- Activity (NCI-H446 [5]): 0.47%
- Activity (NCI-H446 [6]): 13%
- Activity (NCI-H446 [7]): 1.53%
- Activity (NCI-H446 [8]): 0.38%
- Activity (NCI-H446 [9]): 15.3%
- IC50 at 48 h [10]: 47.9 µM
- viability at 0.25 µM (NCI-H446 [11]): 95.4%
- Activity (NCI-H446 [12]): 1.1%
- viability at 2 µM (NCI-H446 [14]): 69.1%
- viability at 1 µM (NCI-H446 [15]): 73.3%
- Activity [16]: Toxic
- Activity (NCI-H446 [17]): 12.8%
- viability at 0.5 µM (NCI-H446 [18]): 96%
- Activity (NCI-H446 [19]): 2.17%
- Activity (NCI-H446 [21]): inactive
- Activity (NCI-H446 [22]): 1.98%
- IC50 at 48 h [23]: 43.7 µM

- Drug uptake [26]: Active
- Activity (Cell membrane [31]): Dose-Dependent Effect
- IC50 (NCI-H446 [13]): 2.87 µM
- Drug uptake [37]: Active
- IC50 (HepG2): 2.48 µM
- IC50 (A549): 4.6 µM
SMILES: C=CCc1ccc(OCCC)c(-c2ccc(OCCC[n+]3ccc(/C=C/c4c[nH]c5ccccc45)cc3)c(CC=C)c2)c1.[Br-]
- selectivity ratio [24]: ~10
- Activity (NCI-H446 [1]): 57.4%
- Activity (NCI-H446 [25]): Dose-Dependent Effect
- Activity (NCI-H446 [2]): 2.19%
- Activity (NCI-H446 [27]): Active
- Activity [28]: Non-Toxic
- Activity (NCI-H446 [3]): 95.4%
- Activity (NCI-H446 [29]): Active
- Activity (CDDP-resistant A549 cell [30]): inactive
- Activity (NCI-H446 [5]): 10.1%
- Activity (NCI-H446 [6]): 95.4%
- Activity [32]: Non-Toxic
- Activity (NCI-H446 [7]): 0.08%
- Activity (NCI-H446 [33]): Active
- Activity (NCI-H446 [8]): 39.9%
- Activity (NCI-H446 [9]): 0.45%
- IC50 at 48 h [10]: 2.62 µM
- viability at 0.25 µM (NCI-H446 [11]): 2.58%
- Activity (NCI-H446 [12]): 2.12%
- Activity (NCI-H446 [13]): Dose-Dependent Effect
- Activity (NCI-H446 [34]): Active
- viability at 2 µM (NCI-H446 [14]): 1.97%
- Activity (CDDP-resistant A549 cell [35]): Active
- viability at 1 µM (NCI-H446 [15]): 1.32%
- Activity (NCI-H446 [36]): Active
- Activity (NCI-H446 [17]): 0.13%
- viability at 0.5 µM (NCI-H446 [18]): 1.75%
- Activity (NCI-H446 [19]): 0.14%
- Activity (NCI-H446 [38]): Active
- Activity (NCI-H446 [39]): Tde
- Activity (NCI-H446 [40]): Active
- Activity (NCI-H446 [41]): Dose-Dependent Effect
- Activity (NCI-H446 [42]): 68.31%
- Activity (NCI-H446 [43]): Dose-Dependent Effect
- Activity (NCI-H446 [22]): 88.1%
- IC50 at 48 h [23]: 23.1 µM
- Activity [44]: Non-Toxic
- Activity (NCI-H446 [45]): Active
